The source of these data is ChEMBL document CHEMBL4480409, “SGC-GAK-1: A Chemical Probe for Cyclin G Associated Kinase (GAK)” (J Med Chem, 2019).

Test [1] addresses T1, Cyclin-G-associated kinase (Homo sapiens, UniProt O14976).
T1 sequence (O14976 whole entry): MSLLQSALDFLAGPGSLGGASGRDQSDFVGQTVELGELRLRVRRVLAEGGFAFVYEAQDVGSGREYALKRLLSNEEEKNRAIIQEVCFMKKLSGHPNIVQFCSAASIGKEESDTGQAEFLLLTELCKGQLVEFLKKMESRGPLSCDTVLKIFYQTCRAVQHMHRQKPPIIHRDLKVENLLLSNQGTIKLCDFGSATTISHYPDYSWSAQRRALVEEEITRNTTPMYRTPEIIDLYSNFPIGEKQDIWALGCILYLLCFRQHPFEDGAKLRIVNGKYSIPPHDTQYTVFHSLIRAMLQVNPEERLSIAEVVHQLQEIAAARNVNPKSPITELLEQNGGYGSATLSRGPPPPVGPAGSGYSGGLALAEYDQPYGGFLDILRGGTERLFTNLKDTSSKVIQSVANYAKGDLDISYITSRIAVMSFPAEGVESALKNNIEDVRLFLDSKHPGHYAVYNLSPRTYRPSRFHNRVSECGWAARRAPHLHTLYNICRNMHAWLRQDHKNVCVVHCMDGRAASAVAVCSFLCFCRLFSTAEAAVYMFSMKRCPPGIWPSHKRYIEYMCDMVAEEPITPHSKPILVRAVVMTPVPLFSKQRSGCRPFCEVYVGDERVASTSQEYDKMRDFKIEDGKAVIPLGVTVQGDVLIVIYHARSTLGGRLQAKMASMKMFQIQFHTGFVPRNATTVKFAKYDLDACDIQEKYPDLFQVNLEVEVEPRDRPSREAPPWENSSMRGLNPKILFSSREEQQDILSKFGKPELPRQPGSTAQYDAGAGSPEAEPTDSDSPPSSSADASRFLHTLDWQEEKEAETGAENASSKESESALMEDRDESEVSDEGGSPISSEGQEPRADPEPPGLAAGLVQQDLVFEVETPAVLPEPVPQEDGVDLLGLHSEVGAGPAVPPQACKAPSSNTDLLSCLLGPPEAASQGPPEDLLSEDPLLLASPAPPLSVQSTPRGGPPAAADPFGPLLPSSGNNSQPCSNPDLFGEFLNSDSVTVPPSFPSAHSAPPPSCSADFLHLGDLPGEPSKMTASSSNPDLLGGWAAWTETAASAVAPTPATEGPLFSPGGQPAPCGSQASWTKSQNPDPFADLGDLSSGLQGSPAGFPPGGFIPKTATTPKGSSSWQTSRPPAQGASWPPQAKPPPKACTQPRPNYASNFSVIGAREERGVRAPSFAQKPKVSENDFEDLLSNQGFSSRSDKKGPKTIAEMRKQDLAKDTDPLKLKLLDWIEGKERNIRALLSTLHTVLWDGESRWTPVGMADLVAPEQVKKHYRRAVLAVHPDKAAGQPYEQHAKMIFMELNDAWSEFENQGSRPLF
As to the kind of experiment: Binding affinity to biotinylated human GAK (13 to 338 residues) expressed in Escherichia coli incubated for 1.5 hrs by fluorescent tracer dependent TR-FRET based competitive ligand binding displacement assay.

Test [2] deals with Atypical kinase COQ8A, mitochondrial (Homo sapiens, UniProt Q8NI60). As to the kind of experiment: Binding affinity to biotinylated full length human ADCK3 expressed in Escherichia coli incubated for 1.5 hrs by fluorescent tracer dependent TR-FRET based competitive ligand binding displacement assay. (In general: TR-FRET usually uses a lanthanide donor and a delayed reading to cut background.)
Sequence of Atypical kinase COQ8A, mitochondrial (Q8NI60 whole entry): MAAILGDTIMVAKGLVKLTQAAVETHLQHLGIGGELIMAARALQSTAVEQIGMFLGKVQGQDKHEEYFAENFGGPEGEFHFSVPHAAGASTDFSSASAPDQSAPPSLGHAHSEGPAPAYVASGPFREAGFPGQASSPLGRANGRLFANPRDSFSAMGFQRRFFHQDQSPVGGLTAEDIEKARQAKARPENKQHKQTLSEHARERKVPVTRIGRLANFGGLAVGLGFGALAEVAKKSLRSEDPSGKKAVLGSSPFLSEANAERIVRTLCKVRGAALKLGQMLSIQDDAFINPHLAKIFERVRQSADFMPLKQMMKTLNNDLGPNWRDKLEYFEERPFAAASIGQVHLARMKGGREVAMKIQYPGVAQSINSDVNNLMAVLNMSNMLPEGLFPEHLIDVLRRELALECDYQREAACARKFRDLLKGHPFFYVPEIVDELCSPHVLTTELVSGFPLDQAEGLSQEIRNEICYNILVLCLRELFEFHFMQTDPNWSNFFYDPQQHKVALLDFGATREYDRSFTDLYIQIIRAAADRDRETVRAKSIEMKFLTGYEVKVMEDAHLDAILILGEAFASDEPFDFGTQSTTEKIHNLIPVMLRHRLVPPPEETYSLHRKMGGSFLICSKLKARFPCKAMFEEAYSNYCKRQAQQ

Test [3] concerns the target T2, Serine/threonine-protein kinase NLK (Homo sapiens, UniProt Q9UBE8).
T2 sequence (Q9UBE8 whole entry): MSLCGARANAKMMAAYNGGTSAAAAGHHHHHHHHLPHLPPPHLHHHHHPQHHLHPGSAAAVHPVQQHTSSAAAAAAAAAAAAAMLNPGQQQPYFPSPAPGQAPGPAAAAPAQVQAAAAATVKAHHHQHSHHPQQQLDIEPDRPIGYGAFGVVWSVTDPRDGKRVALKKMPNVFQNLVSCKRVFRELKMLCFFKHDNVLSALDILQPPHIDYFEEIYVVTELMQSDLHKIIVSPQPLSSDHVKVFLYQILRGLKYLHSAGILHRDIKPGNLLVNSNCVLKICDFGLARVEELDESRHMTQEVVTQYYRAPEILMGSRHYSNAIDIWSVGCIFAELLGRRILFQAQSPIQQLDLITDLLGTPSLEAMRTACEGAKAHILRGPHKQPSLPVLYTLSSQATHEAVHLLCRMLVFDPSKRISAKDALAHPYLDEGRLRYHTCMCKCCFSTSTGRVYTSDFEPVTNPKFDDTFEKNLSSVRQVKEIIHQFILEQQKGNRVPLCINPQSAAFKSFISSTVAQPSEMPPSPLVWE
Description: Binding affinity to biotinylated full length human NLK expressed in Escherichia coli incubated for 1.5 hrs by fluorescent tracer dependent TR-FRET based competitive ligand binding displacement assay.

The target in test [4] is T3, Receptor-interacting serine/threonine-protein kinase 2 (Homo sapiens, UniProt O43353). Description: Binding affinity to biotinylated human RIPK2 (1 to 310 residues) expressed in Escherichia coli incubated for 1.5 hrs by fluorescent tracer dependent TR-FRET based competitive ligand binding displacement assay.
T3 sequence (O43353 whole entry, the tested form may be a part): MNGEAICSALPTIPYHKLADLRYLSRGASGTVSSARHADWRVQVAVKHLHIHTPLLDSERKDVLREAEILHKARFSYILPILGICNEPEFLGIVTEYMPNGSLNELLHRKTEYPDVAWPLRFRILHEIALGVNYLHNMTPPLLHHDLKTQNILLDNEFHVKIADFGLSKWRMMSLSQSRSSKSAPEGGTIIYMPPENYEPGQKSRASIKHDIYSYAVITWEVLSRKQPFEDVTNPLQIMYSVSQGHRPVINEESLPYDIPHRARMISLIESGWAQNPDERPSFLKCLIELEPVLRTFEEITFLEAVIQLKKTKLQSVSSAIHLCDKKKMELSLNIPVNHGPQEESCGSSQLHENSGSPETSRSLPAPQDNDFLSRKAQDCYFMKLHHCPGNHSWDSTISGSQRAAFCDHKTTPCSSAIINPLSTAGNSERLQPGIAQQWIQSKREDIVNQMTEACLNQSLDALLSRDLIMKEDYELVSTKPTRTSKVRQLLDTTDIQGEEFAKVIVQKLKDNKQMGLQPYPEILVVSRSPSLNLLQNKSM
For test [5], the target named is T1, Cyclin-G-associated kinase.
Test [6] has as its target T1, Cyclin-G-associated kinase. Description: Binding affinity to GAK (unknown origin).
The target of test [7] is T3, Receptor-interacting serine/threonine-protein kinase 2. Description: Displacement of fluorescent tracer from N-terminus of human RIPK2 expressed in HEK293T cells after 2 hrs by NanoBRET target engagement assay. It counts as cell-based. On the technique in general: Bioluminescence resonance energy transfer reports proximity on the nanometre scale.
For test [8], the target named is T1, Cyclin-G-associated kinase. Description: Displacement of fluorescent tracer from N-terminus of human GAK expressed in HEK293T cells after 2 hrs by NanoBRET target engagement assay. It counts as cell-based.
Test [9] deals with T4, Cyclin-G-associated kinase (Homo sapiens) (UniProt O14976).
T4 sequence (whole entry): T1 sequence (O14976 whole entry)
As to the kind of experiment: Binding affinity to biotinylated human GAK (13 to 338 residues) expressed in Escherichia coli at 1 uM incubated for 1.5 hrs by fluorescent tracer dependent TR-FRET based competitive ligand binding displacement assay.

Test [10] addresses BMP-2-inducible protein kinase (Homo sapiens, UniProt Q9NSY1). Description: Binding affinity to C-terminal AVI-tagged BMP2K (unknown origin) (38 to 345 residues) expressed in Escherichia coli after 1.5 hrs by TR-FRET assay.
For a further test, the system named is CWR22R. Description: Cytotoxicity against human 22Rv1 cells after 72 hrs by MTS assay. It is filed as functional, cell-based. To be noted: 22Rv1, 72 h. In general terms: Formazan colour is commonly taken as a measure of viable cells.
Another test concerns LNCaP. Description: Cytotoxicity against human LNCAP cells after 72 hrs by MTS assay. It is filed as functional, cell-based.
Test [11] addresses T4, Cyclin-G-associated kinase (Homo sapiens).
Description: Binding affinity to GAK (unknown origin) assessed as change in melting temperature by DSF assay
Test [12] addresses Serine/threonine-protein kinase 16 (Homo sapiens, UniProt O75716). As to the kind of experiment: Binding affinity to C-terminal AVI-tagged STK16 (unknown origin) (13 to 305 residues) expressed in Escherichia coli after 1.5 hrs by TR-FRET assay.
Test [13] addresses AP2-associated protein kinase 1 (Homo sapiens, UniProt Q2M2I8). Description: Binding affinity to C-terminal AVI-tagged AAK1 (unknown origin) (31 to 396 residues) expressed in Escherichia coli after 1.5 hrs by TR-FRET assay.
Test [14] deals with T5, Interleukin-1 receptor-associated kinase 3 (Homo sapiens, UniProt Q9Y616).
T5 sequence (Q9Y616 whole entry): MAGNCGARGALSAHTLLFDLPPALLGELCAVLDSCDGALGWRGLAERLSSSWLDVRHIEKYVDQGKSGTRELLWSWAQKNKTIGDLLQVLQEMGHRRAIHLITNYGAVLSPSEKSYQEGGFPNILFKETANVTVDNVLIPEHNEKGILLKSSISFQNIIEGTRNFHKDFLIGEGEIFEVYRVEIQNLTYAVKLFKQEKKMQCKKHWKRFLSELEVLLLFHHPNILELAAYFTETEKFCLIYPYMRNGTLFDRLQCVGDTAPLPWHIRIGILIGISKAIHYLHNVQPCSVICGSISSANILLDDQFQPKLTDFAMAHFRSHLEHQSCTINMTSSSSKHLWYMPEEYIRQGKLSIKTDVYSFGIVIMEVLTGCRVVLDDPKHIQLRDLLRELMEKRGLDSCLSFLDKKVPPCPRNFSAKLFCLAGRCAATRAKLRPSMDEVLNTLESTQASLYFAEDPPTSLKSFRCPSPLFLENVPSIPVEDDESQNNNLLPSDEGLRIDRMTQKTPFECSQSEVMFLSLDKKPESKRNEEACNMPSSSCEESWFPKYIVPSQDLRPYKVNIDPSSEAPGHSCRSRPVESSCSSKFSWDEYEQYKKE
As to the kind of experiment: Binding affinity to human IRAK3 (147 to 596 residues) expressed in bacterial expression system by KINOMEscan assay.

Some results are limits rather than exact numbers.

Sequence of BMP-2-inducible protein kinase (Q9NSY1 whole entry, the tested form may be a part): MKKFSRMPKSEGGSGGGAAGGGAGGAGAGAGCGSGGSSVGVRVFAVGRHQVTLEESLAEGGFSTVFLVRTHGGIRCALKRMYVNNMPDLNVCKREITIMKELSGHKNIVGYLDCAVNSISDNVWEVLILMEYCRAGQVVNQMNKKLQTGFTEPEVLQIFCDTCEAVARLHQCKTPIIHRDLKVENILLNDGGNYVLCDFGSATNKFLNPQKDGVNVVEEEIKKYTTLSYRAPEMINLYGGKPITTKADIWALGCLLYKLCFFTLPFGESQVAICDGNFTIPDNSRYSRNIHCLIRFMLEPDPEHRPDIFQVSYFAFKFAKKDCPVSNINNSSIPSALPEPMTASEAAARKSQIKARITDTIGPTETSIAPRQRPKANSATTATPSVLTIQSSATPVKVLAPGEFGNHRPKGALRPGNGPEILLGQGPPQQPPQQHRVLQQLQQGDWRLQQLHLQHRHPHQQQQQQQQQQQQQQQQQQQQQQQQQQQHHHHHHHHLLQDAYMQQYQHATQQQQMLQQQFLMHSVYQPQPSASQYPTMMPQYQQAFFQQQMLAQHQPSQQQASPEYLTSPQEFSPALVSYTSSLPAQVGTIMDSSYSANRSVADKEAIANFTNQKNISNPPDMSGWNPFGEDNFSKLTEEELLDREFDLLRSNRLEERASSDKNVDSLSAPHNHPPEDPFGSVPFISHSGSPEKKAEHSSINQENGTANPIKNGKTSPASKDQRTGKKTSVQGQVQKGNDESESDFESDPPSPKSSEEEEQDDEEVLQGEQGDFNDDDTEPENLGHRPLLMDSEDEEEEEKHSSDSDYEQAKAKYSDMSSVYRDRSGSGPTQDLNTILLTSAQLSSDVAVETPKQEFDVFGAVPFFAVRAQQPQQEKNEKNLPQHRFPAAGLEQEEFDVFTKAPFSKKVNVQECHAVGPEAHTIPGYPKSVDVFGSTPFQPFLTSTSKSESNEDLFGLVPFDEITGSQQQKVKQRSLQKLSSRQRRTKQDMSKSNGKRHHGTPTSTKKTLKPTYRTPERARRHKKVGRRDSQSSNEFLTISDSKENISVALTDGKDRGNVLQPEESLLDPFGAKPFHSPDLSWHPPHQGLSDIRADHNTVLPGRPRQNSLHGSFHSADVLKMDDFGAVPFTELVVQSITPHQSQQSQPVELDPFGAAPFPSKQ
Sequence of AP2-associated protein kinase 1 (Q2M2I8 whole entry, the tested form may be a part): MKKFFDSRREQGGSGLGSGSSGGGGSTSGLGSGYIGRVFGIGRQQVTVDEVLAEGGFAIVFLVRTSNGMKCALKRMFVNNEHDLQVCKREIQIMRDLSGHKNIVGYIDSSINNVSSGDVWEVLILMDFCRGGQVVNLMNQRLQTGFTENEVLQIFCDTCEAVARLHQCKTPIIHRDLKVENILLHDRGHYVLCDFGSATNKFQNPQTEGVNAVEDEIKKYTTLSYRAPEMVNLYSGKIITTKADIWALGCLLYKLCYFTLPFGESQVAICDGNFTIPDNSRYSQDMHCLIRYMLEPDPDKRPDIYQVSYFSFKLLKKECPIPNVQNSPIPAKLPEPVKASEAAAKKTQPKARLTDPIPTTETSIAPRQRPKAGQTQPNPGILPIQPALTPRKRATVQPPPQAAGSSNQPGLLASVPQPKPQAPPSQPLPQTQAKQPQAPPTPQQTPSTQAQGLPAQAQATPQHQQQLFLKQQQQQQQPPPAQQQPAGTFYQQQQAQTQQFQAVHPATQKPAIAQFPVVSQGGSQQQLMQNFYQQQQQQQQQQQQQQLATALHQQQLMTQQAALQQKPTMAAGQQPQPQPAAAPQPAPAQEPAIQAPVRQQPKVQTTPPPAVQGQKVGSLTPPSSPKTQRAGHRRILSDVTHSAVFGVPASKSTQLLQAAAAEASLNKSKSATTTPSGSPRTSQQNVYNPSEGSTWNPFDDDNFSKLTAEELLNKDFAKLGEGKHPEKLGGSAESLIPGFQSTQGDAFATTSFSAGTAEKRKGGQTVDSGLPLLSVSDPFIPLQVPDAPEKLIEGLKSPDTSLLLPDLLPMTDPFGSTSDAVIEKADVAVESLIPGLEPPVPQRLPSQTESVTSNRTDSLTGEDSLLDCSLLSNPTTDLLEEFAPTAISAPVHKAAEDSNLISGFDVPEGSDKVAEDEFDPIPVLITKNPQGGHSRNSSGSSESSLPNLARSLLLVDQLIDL
Sequence of Serine/threonine-protein kinase 16 (O75716 whole entry, the tested form may be a part): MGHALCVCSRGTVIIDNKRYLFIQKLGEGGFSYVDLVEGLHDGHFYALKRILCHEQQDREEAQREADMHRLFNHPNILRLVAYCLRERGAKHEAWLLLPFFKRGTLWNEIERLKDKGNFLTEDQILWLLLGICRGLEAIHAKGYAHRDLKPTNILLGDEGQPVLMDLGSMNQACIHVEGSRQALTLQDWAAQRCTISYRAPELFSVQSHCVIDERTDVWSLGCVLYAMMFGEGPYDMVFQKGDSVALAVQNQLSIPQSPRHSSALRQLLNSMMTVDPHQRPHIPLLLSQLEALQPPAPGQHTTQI

Consider `COc1cc(Nc2ccnc3ccc(C#N)cc23)cc(OC)c1OC`, for which the Kd (in general, a measure of binding affinity in units of concentration) in test [1] is 3.9 nM; in test [2] it was 170 nM; in [3], 29 nM; in [4], 88 nM.

For the compound `COc1cc(Nc2ccnc3ccc(Cl)cc23)cc(OC)c1OC`, the Kd in test [1] was determined as 6.7 nM; in test [2] it was 170 nM; in test [3], 650 nM; in test [4], 85 nM.

Consider `Cc1[nH]nc(Nc2ncnc3cc(OCCO)c(S(=O)(=O)C(C)(C)C)cc23)c1C`, for which, in test [5], the inhibition constant Ki (as a rule, a measure of affinity in units of concentration, obtained from inhibition or displacement) amounted to 49 nM.

Compound `COc1cc(-c2cnc3c(N4CCOCC4)snc3c2)cc(OC)c1OC` had a Kd in test [6] of 8.9 nM.

With `CC(C)(C)S(=O)(=O)c1ccc2nccc(Nc3n[nH]c4ccc(F)cc34)c2c1`, the affinity in [5] corresponds to a Ki of 220 nM.

Consider `Clc1cc2cc(c1)-c1cnn3ccc(nc13)NCCOCCO2`, for which the values for the IC50 in test [7] and in [8] were 11 nM and 60 nM, respectively. Also, in [5], the Ki stood at 3.8 nM.

For the compound `COc1cc(Nc2ccnc3ccc(C(C)(C)C)cc23)cc(OC)c1OC`, the Kd in test [1] was 25 nM; in test [2], 740 nM; in test [3], 350 nM; in test [4], 670 nM.

In test [9], `COc1cc(Nc2ccnc3ccc(C(F)(F)F)cc23)cc(OC)c1OC` yielded an Activity of over 50%. The compound also displayed a Kd in [3] of 790 nM.

Consider `COc1ccc2c(Nc3cc(OC)c(OC)c(OC)c3)ccnc2c1`, for which the Kd came to 17 nM in [1], 1200 nM in [2], 700 nM in test [3] and 200 nM in [4].

On to `COc1cc(Nc2ccnc3cc(C#N)ccc23)cc(OC)c1OC`, for which the Kd in test [1] is 9.7 nM; in [2], 66 nM; in test [3], 28 nM; in test [4], 96 nM.

In the case of `COc1cc(Nc2ccnc3ccccc23)cc(OC)c1OC`, the Kd was 59 nM in test [1], 4100 nM in [2], 6200 nM in test [3] and 2900 nM in test [4].

Consider `COc1cc2nccc(Nc3cc(OC)c(OC)c(OC)c3)c2cc1OC`, for which the Kd stood at 2.9 nM in [1], 250 nM in [2], 410 nM in [3] and 42 nM in test [4].

As to `COc1cc(Nc2ccnc3ccc(Br)cc23)cc(OC)c1OC`, the Kd in test [2] came out at 190 nM; in test [3], 520 nM; in [4], 110 nM. The IC50 (usually the point on the concentration scale where inhibition reaches its midpoint) in [7] is 360 nM; in the test on CWR22R, 170 nM; in the test with LNCaP it was 650 nM. In addition, in test [10], the Ki was over 100000 nM. The ΔTm (commonly the shift of the melting midpoint relative to a reference) in test [11] turned out to be 7.7 °C.

`CC(C)(C)S(=O)(=O)c1cc2c(Nc3ccc4scnc4c3)ncnc2cc1OCCO`: the figures for the half-maximal inhibitory concentration (IC50) in [7] and in test [8] were 2 nM and over 10000 nM, respectively. The compound further had a Ki in test [5] of 8200 nM.

Take `COc1cc(N(C)c2ccnc3ccc(C(F)(F)F)cc23)cc(OC)c1OC`: the Ki was found to be 15000 nM in [12], 95000 nM in [10], 2500 nM in test [5] and 78000 nM in [13]. Further, the IC50 with CWR22R and with LNCaP was over 100000 nM each time. The thermal shift (ΔTm) in [11] is -0.3 °C. For the same compound, in test [14], the Kd is 740 nM.

Take `COc1cc(Nc2ccnc3ccc(I)cc23)cc(OC)c1OC`: the Kd was found to be 7.9 nM in [1], 190 nM in [2], 660 nM in test [3] and 69 nM in test [4].

In the case of `COc1ccc2nccc(Nc3cc(OC)c(OC)c(OC)c3)c2c1`, the Kd amounted to 21 nM in test [1], 2000 nM in test [2], 2600 nM in test [3] and 170 nM in [4].

In the case of `COc1cc(Nc2cc(C)nc3ccc(C(F)(F)F)cc23)cc(OC)c1OC`, the Ki in test [12] is over 100000 nM; in test [10], over 100000 nM; in test [5] it was 19000 nM; in test [13] it was over 100000 nM. Moreover, the ΔTm in test [11] is -0.52 °C.
